The source of these data is US20250169495A1, “COMPOSITIONS AND METHODS FOR CONTROLLING DROSOPHILA FLIES” (Rutgers, The State University of New Jersey, priority 2023, published 2025).

A short description of series [1]: Emission rate from polyethylene sachets, field cages. The class given is physicochemical. Conditions: field cage; sachets weighed before and 3 days after deployment. The source says:
Twenty-four hours after deploying the sachets, 120 flies (approximately 60 males and 60 females) were released into each cage at 18:00 hrs (N=120 flies×4 treatments×4 replicates=1,920 total flies). To ensure even distribution within the cages, 30 flies were released at four equidistant points between the bushes. A pre-sampling of the berries, conducted before the flies were released, confirmed the absence of any infestation. Berries were then collected 1-, 2-, and 3-days post-treatment. From every other bush (starting at the focal bush) in the cage, 50 berries from the top half and 50 from the bottom half were collected into two separate 236.6 mL deli containers lined with two cotton pads. From each berry sample, a random subsample of 10 berries were examined and egg counts recorded before being returned to the original container. The blueberries were incubated on a light bench in the laboratory for up to two weeks, as previously described, and adult emergence was recorded. The sachets were weighed before deployment and 3 days after deployment to measure the emission rates of each compound. Finally, the emission rates of compounds in the semi-field and field cage studies were calculated by subtracting the final weight of the sachets from the initial weight and dividing by the time interval (24 h or 3 days). These rates were then compared across repellent treatments using ANOVA, with Tukey pairwise comparisons conducted when significant differences were found.

Series [2] relates to male and female Drosophila suzukii antennae. Put plainly: Electroantennogram (EAG) assay. The note with it: for antennal (EAG) response: 0.001-10 mg doses in hexane, N=10; for strength of EAG response compared among treatments: 0.001-10 mg doses. On the procedure: Electroantennogram (EAG) assays were conducted to determine the antennal response of sexually mature male and female D. suzukii to ethyl butanoate, ethyl (E)-but-2-enoate, and 2-pentylfuran. The antennal responses of male and female D. suzukii to each compound were tested at five doses (0.001 mg, 0.01 mg, 0.1 mg, 1 mg, and 10 mg) diluted in hexane. The stimulus cartridge preparations, antennal preparations, and EAG apparatus used were similar to those previously described in the literature. Stimulus applicators consisted of a 14.5-cm-long glass Pasteur pipette containing 20 μL of each volatile dose (or hexane control) pipetted onto a 6×0.5-cm strip of filter paper. The applicators containing the impregnated filter paper were placed under the fume hood for 2 min to allow the hexane to evaporate. For the recording and base electrodes, a silver wire was inserted into a drawn capillary tube filled with phosphate-buffered saline (NaCl, 4 g; NA2HPO4, 0.57 g; KH2PO4, 0.1 g; KCl, 0.1 g in 500 ml distilled water). To attach the base electrode to the fly, the fly's abdomen was removed, and the sharp tip of the saline-filled capillary tube was pulled directly into the thoracic cavity. Once the fly preparation was mounted, the recording electrode was carefully moved toward the antenna using a micromanipulator until the antenna touched the pool of saline solution on the recording electrode. Antennal preparations were exposed to a constant stream of charcoal-filtered and humidified air at a rate of 1.5 l/min.
The EAG apparatus consisted of an IDAC-02 interface board for data acquisition and used Syntech software (Syntech Ltd., Hilversum, The Netherlands) for recording, storing, and quantifying EAG responses. Antennal preparations were primed with 1 mg of acetoin, a known attractant and antennally active compound, to ensure that the antennae were prepared correctly and responsive (positive control). Then, the antennae were exposed to a hexane control, followed by exposure to increasing doses of one of the volatiles. Each antenna was exposed to four rounds of each dose of a single compound before being discarded. Six antennae were tested daily: three from males and three from females. Test and control compounds were applied at 10 second(s) intervals at a pulse rate of 0.5 s, with a 1-min interval between each stimulus. Maximum amplitudes of depolarizations were measured (in millivolts) for each compound with the response from the hexane-only controls subtracted from the other doses to normalize the antennal response. In total, each dose of each compound was replicated 10 times for each sex.
To analyze the effect of dose of the three repellents on D. suzukii antennal responses, a generalized linear model (GLM) was used with a Poisson distribution and a log link function in SPSS Statistics 23.0 (IBM Corp, Armonk, NY, USA). The model included ‘Treatment’ (ethyl butanoate, ethyl (E)-but-2-enoate, and 2-pentylfuran), ‘Dose’, ‘Sex’, and their interactions as independent variables. This analysis, when significant, was followed by post hoc Bonferroni tests (α=0.05) to determine individual differences among groups. Prior to analysis, EAG data were normalized relative to the response to the hexane control.

Series [3] can be described thus: Emission rate from polyethylene sachets, semi-field cages. The class given is physicochemical. The note with it: sachet with 2.5 mL, 24 h. On the procedure: On the day of testing, two bushes were placed in each cage (FIG. 6B). Each bush in the tent was surrounded by a metal tomato cage. The bagged blueberry fruit clusters in the field were clipped and brought inside the cages. Clusters of 10 berries were created and placed in water picks. Five berry clusters were distributed randomly and evenly on each tomato cage at different heights using green twist ties (FIG. 6B). The sachets used for the treatments were prepared according to the methods described by Gale et al. (2024). They were constructed from 8 cm strips of polyethylene tubing (5.1 cm width, 2 MIL thickness; ULINE, Pleasant Prairie, WI, USA) and polyester felt (Grainger, Lake Forest, IL, USA). One end of the polyethylene tubing was sealed with an impulse sealer. A 5 cm strip of felt was placed inside the sachet's open end, and a 2.5 mL aliquot of each treatment was pipetted onto the felt. The open end was then sealed shut with the impulse sealer, entirely sealing the saturated felt. A hole was punched at the top of each sachet, away from the treatment area to avoid damaging the sealed section, and green twist ties were used to hang the sachets in the center of a bush (FIG. 6B). Before loading the sachets, the weights of the empty sachets were taken. The sachets were weighed again directly after loading with the compounds and then a final time after the 24-hour test period to measure the emission rates of each volatile. Finally, the emission rates of compounds in the semi-field and field cage studies were calculated by subtracting the final weight of the sachets from the initial weight and dividing by the time interval (24 h or 3 days). These rates were then compared across repellent treatments using ANOVA, with Tukey pairwise comparisons conducted when significant differences were found.

Regarding `CCCCCc1ccco1` [2-pentylfuran, reference compound], the “emission rate (mean±SE)” value in series [1] is 559.73 ± 23.54 mg/day. Besides, the “antennal (EAG) response” value in series [2] is “dose-dependent antennal responses”. Besides, the “mean emission rate (±SE)” value in series [3] was 82.3 ± 7.6 mg/h.

`C/C=C/C(=O)OCC` [ethyl (E)-but-2-enoate]: the “emission rate (mean±SE)” value in series [1] amounted to 679.23 ± 17.73 mg/day. Further, in series [2], the “strength of EAG response compared among treatments” value is “stronger antennal responses than 2-pentylfuran” and the “antennal (EAG) response” value is “dose-dependent antennal responses”. For the same compound, in series [3], the “mean emission rate (±SE)” value turned out to be 54.9 ± 8.9 mg/h.

For `CCCC(=O)OCC` [ethyl butanoate], the “emission rate (mean±SE)” value in series [1] is recorded as 697.97 ± 7.96 mg/day. In addition, in series [2], the “strength of EAG response compared among treatments” value was “stronger antennal responses than 2-pentylfuran” and the “antennal (EAG) response” value is reported as “dose-dependent antennal responses”. Moreover, in series [3], the “mean emission rate (±SE)” value came to 70.4 ± 14.2 mg/h.
